{"source": "ChEMBL document CHEMBL5696442", "about": "“Discovery of type II inhibitors of TGFβ-activated kinase 1 (TAK1) and mitogen-activated protein kinase kinase kinase kinase 2 (MAP4K2)” (J Med Chem, 2015)", "key": {"[1]": {"molecular_target": "Serine/threonine-protein kinase Nek5 (Homo sapiens) (UniProt Q6P3R8)", "assay": "Inhibition of NEK5 (unknown origin) at 10 uM by Ambit Kinomescan binding assay"}, "[2]": {"molecular_target": "RAF proto-oncogene serine/threonine-protein kinase (Homo sapiens, UniProt P04049)", "assay": "Inhibition of RAF1 Lys2 labeling site in human A-375 cells at 5 uM by KiNativ Profiling analysis relative to control", "type": "cell-based"}, "[3]": {"molecular_target": "Serine/threonine-protein kinase N2 (Homo sapiens) (UniProt Q16513)", "sequence (Q16513 whole entry, looked up)": "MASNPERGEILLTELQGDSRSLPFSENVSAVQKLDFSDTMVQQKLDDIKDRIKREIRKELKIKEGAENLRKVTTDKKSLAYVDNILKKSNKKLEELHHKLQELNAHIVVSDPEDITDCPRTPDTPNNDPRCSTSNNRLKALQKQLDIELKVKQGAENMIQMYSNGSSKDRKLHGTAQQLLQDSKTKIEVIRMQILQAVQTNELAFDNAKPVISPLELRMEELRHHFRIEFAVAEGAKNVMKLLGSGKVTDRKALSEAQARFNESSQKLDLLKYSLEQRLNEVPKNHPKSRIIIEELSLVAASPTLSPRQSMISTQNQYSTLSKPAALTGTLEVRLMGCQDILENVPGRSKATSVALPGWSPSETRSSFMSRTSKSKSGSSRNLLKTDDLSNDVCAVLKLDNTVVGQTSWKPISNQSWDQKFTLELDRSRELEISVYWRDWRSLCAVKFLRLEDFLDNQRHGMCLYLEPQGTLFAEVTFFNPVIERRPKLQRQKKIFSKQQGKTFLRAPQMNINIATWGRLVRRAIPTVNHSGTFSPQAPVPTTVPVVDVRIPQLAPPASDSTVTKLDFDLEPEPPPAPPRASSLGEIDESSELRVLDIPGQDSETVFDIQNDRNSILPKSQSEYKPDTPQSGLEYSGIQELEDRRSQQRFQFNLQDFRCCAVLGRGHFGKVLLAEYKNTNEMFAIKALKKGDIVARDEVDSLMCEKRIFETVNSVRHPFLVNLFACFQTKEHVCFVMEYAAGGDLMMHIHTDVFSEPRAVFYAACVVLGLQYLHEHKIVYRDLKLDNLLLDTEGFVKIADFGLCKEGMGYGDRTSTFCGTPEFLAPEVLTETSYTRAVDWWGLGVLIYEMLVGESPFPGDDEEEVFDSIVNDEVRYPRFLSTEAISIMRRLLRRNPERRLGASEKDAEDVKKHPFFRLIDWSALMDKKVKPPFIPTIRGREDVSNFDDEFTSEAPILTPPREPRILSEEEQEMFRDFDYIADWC", "assay": "Inhibition of PKN2 Lys2 labeling site in human A-375 cells at 0.05 uM by KiNativ Profiling analysis relative to control", "type": "cell-based"}, "[4]": {"molecular_target": "Cyclin-dependent kinase 2 (Homo sapiens) (UniProt P24941)", "assay": "Inhibition of CDK2 K2 labeling site in human Huh-7 cells at 1 uM by KiNativ Profiling analysis relative to control", "type": "cell-based"}, "[5]": {"molecular_target": "5'-AMP-activated protein kinase catalytic subunit alpha-1 (Homo sapiens) (UniProt Q13131)", "sequence (Q13131 whole entry, looked up)": "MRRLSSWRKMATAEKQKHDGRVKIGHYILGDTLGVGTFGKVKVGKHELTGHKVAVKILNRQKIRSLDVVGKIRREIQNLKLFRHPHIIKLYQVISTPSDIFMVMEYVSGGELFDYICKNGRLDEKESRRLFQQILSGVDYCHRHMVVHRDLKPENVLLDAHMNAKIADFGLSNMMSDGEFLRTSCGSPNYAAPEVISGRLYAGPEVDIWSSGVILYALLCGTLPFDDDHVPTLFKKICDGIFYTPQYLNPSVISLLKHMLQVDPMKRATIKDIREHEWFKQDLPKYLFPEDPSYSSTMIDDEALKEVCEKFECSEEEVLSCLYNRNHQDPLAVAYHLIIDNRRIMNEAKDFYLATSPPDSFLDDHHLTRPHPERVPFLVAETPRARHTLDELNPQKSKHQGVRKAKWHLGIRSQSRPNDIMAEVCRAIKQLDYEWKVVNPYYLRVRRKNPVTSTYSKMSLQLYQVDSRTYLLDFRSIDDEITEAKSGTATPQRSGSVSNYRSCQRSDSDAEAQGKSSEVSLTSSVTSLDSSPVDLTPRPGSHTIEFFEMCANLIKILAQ", "assay": "Inhibition of AMPKa1 ATP labeling site in human Huh-7 cells at 10 uM by KiNativ Profiling analysis relative to control", "type": "cell-based"}, "[6]": {"assay": "Inhibition of MLK1/4 K2 labeling site in human Huh-7 cells at 10 uM by KiNativ Profiling analysis relative to control", "conditions": "condition cancer"}, "[7]": {"tested_on": "MEF", "assay": "Inhibition of IL-1alpha induced p105 phosphorylation level in mouse MEF cells preincubated for 1 hr followed by IL-1 alpha stimulation and measured after 30 mins by Western blot analysis", "type": "functional, cell-based", "conditions": "dose 0.01-10 µM"}, "[8]": {"molecular_target": "Tyrosine-protein kinase JAK3 (Homo sapiens) (UniProt P52333)", "assay": "Inhibition of JAK3 JH1 catalytic domain (unknown origin) at 1 uM by Ambit Kinomescan binding assay relative to control"}, "[9]": {"molecular_target": "Calcium/calmodulin-dependent protein kinase type II subunit delta (Homo sapiens) (UniProt Q13557)", "sequence (Q13557 whole entry)": "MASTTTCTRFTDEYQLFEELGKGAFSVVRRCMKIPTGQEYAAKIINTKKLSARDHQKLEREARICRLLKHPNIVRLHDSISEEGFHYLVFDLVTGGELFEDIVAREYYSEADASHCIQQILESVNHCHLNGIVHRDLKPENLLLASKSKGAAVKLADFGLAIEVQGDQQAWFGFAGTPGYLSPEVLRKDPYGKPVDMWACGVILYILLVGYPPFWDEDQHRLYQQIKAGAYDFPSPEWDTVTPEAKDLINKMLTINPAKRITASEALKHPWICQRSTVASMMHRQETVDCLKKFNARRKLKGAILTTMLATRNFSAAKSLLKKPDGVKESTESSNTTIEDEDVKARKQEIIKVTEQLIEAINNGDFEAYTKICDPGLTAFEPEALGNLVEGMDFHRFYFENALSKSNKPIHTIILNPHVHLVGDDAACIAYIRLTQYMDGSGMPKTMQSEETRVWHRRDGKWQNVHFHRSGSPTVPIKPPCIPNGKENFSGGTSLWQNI", "assay": "Inhibition of CAMK2D (unknown origin) at 1 uM by Ambit Kinomescan binding assay relative to control; values are per cent of control"}, "[10]": {"molecular_target": "T1, Ephrin type-B receptor 4 (Homo sapiens) (UniProt P54760)", "T1 sequence (whole entry)": "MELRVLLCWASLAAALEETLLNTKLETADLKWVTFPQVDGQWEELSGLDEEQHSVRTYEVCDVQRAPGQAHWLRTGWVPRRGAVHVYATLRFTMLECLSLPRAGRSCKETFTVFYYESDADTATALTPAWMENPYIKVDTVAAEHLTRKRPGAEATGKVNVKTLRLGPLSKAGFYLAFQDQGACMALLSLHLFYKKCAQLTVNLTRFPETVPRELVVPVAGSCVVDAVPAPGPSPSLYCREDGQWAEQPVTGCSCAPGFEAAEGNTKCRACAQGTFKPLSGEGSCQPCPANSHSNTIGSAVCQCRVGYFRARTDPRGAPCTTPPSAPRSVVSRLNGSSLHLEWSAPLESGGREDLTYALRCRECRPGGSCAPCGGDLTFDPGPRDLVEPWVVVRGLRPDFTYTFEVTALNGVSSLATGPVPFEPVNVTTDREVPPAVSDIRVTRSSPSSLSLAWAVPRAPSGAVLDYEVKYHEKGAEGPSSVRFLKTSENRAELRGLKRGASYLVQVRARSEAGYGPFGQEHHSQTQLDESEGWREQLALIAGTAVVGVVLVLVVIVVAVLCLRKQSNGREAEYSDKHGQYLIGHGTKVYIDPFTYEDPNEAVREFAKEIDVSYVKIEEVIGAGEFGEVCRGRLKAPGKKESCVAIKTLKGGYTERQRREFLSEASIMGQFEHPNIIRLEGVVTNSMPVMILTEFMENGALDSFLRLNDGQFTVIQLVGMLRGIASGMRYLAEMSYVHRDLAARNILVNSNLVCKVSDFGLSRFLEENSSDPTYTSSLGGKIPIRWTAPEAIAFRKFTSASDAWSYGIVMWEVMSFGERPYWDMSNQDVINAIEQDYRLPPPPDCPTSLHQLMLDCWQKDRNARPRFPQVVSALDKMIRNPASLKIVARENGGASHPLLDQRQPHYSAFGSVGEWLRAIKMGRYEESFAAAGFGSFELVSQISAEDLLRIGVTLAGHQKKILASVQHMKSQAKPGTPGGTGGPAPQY", "assay": "Inhibition of EPHB4 (unknown origin) at 1 uM by Ambit Kinomescan binding assay relative to control"}, "[11]": {"molecular_target": "Serine/threonine-protein kinase 25 (Homo sapiens) (UniProt O00506)", "sequence (O00506 whole entry, looked up)": "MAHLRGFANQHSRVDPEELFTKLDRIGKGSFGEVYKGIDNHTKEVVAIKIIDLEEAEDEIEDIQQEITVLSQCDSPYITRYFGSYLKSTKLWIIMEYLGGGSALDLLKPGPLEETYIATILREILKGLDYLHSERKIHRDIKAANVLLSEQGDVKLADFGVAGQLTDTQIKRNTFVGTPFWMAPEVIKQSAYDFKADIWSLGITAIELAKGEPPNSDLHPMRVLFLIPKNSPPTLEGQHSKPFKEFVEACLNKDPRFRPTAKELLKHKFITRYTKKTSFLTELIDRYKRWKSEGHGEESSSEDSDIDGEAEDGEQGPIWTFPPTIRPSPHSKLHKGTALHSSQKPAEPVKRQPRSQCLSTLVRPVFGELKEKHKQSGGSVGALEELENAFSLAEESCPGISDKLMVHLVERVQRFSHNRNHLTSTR", "assay": "Inhibition of YSK1 (unknown origin) at 1 uM by Ambit Kinomescan binding assay relative to control; values are per cent of control"}, "[12]": {"molecular_target": "Serine/threonine-protein kinase 16 (Homo sapiens) (UniProt O75716)", "assay": "Inhibition of STK16 (unknown origin) at 1 uM by Ambit Kinomescan binding assay relative to control"}, "[13]": {"molecular_target": "AP2-associated protein kinase 1 (Homo sapiens) (UniProt Q2M2I8)", "assay": "Inhibition of AAK1 (unknown origin) at 1 uM by Ambit Kinomescan binding assay relative to control"}, "[14]": {"molecular_target": "Receptor tyrosine-protein kinase erbB-3 (Homo sapiens) (UniProt P21860)", "assay": "Inhibition of HER3/ErbB3 Lys1 labeling site in human A-375 cells at 5 uM by KiNativ Profiling analysis relative to control", "type": "cell-based"}, "[15]": {"molecular_target": "Leucine-rich repeat serine/threonine-protein kinase 2 (Homo sapiens) (UniProt Q5S007)", "assay": "Inhibition of LRRK2 (unknown origin) at 1 uM by Ambit Kinomescan binding assay relative to control; values are per cent of control"}, "[16]": {"molecular_target": "Calcium/calmodulin-dependent protein kinase type II subunit beta (Homo sapiens) (UniProt Q13554)", "assay": "Inhibition of CaMK2b Lys2 labeling site in human Huh-7 cells at 1 uM by KiNativ Profiling analysis relative to control", "type": "cell-based"}, "[17]": {"molecular_target": "Cyclin-dependent kinase 5 (Homo sapiens) (UniProt Q00535)", "sequence (Q00535 whole entry, looked up)": "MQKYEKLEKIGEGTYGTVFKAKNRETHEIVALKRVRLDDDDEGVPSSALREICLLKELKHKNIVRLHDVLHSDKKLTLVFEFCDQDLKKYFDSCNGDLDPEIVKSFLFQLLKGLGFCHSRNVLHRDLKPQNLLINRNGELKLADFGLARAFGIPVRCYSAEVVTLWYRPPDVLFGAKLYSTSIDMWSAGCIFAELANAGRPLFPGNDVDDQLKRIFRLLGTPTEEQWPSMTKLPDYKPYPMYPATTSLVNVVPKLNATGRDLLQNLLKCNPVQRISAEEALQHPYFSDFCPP", "assay": "Inhibition of CDK5 Lys2 labeling site harbouring DLKPQNLLINR in human Huh-7 cell lysate at 1 uM by KiNativ Profiling analysis relative to control", "type": "subcellular"}, "[18]": {"molecular_target": "Serine/threonine-protein kinase 38-like (Homo sapiens) (UniProt Q9Y2H1)", "assay": "Inhibition of NDR2 Lys1 labeling site in human Huh-7 cell lysate at 1 uM by KiNativ Profiling analysis relative to control", "type": "subcellular"}, "[19]": {"molecular_target": "Phosphatidylinositol 4-kinase alpha (Homo sapiens) (UniProt P42356)", "sequence (P42356 whole entry, looked up)": "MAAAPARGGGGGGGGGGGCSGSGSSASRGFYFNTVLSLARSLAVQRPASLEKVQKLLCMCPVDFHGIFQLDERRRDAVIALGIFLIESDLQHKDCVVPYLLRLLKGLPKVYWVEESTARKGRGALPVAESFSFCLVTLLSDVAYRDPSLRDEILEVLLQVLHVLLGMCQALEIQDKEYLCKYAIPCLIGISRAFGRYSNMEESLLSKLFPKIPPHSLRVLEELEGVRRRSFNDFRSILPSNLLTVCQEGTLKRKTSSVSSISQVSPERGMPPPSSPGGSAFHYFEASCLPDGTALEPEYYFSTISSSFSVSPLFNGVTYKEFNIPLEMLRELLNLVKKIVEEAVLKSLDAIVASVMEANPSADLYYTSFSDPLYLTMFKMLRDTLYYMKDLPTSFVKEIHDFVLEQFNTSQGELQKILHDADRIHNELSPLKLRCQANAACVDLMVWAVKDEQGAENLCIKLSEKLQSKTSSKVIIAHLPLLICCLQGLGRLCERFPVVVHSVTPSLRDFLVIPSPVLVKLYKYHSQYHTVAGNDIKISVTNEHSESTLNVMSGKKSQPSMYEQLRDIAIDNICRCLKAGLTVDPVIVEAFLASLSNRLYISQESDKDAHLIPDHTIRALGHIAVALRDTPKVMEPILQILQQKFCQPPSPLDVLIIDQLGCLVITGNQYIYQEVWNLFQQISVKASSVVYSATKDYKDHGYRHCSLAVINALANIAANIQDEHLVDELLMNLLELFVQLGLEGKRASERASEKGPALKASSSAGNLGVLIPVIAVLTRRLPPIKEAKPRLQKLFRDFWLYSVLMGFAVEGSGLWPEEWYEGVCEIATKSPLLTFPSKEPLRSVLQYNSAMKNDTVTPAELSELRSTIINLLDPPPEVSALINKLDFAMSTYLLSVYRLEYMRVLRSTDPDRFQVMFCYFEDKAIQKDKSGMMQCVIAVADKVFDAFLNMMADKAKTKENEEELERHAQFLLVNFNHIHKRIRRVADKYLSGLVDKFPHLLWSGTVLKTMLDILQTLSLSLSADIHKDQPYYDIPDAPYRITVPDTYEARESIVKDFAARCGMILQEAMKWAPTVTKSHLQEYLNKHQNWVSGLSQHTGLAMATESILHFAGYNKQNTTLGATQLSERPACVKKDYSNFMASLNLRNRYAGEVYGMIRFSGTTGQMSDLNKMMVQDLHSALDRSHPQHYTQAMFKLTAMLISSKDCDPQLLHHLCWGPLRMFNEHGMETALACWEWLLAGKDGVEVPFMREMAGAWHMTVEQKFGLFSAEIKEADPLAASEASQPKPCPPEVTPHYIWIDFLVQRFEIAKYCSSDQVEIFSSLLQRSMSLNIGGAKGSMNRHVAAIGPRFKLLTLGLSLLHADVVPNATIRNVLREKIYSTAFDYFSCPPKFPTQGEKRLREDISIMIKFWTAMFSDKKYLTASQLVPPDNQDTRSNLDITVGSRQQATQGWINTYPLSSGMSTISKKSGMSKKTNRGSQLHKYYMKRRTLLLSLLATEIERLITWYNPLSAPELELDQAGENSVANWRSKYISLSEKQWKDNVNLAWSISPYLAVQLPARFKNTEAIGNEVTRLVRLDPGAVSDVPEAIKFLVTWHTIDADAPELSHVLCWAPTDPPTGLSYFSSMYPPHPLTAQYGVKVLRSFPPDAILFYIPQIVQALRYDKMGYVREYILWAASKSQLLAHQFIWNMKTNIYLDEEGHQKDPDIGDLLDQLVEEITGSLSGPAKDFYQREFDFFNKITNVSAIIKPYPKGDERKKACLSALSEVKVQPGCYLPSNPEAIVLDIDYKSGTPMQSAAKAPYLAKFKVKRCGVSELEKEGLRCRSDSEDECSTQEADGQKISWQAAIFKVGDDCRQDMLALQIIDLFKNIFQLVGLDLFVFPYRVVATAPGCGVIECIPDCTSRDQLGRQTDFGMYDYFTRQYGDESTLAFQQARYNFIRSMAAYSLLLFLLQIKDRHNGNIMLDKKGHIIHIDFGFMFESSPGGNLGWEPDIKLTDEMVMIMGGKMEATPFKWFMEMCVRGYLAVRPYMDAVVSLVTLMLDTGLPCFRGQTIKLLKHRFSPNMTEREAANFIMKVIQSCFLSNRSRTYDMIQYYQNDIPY", "assay": "Inhibition of PI4KA ATP labeling site in human Huh-7 cell lysate at 1 uM by KiNativ Profiling analysis relative to control", "type": "subcellular"}, "[20]": {"molecular_target": "Serine/threonine-protein kinase PLK1 (Homo sapiens) (UniProt P53350)", "assay": "Inhibition of PLK1 Lys2 labeling site harbouring DLKLGNLFLNEDLEVK in human Huh-7 cell lysate at 1 uM by KiNativ Profiling analysis relative to control", "type": "subcellular"}}, "note": "Active and inactive are the calls of the source. No cut-off for these calls is given here.", "data": [{"smiles": "CCN1CCN(Cc2ccc(NC(=O)c3ccc(C)c(Oc4ccnc5[nH]ccc45)c3)cc2C(F)(F)F)CC1", "values": [{"measurement": "inhibition", "setting": "[1]", "value": "inactive"}, {"measurement": "inhibition", "setting": "[2]", "value": 83.8, "unit": "%"}, {"measurement": "inhibition", "setting": "[3]", "value": 5.3, "unit": "%"}, {"measurement": "inhibition", "setting": "[4]", "value": 5, "unit": "%"}, {"measurement": "inhibition", "setting": "[5]", "value": 14, "unit": "%"}, {"measurement": "inhibition at 10 µM", "setting": "[6]", "value": 2.9, "unit": "%"}, {"measurement": "inhibition", "setting": "[7]", "value": "Dose-Dependent Effect"}]}, {"smiles": "CCN1CCN(Cc2ccc(NC(=O)c3ccc(C)c(/C=C/c4cnc5[nH]ccc5c4OC)c3)cc2C(F)(F)F)CC1", "values": [{"measurement": "inhibition", "setting": "[8]", "value": 55, "unit": "%"}, {"measurement": "residual activity", "setting": "[9]", "value": 100, "unit": "%"}, {"measurement": "inhibition", "setting": "[10]", "value": 21, "unit": "%"}, {"measurement": "percent of control", "setting": "[11]", "value": 100, "unit": "%"}, {"measurement": "inhibition", "setting": "[12]", "value": 100, "unit": "%"}, {"measurement": "inhibition", "setting": "[13]", "value": 67, "unit": "%"}, {"measurement": "inhibition", "setting": "[14]", "value": -6.6, "unit": "%"}, {"measurement": "residual activity", "setting": "[15]", "value": 53, "unit": "%"}]}, {"smiles": "CNc1cc(Oc2cc(C(=O)Nc3cc(N4CCN(C)CC4)cc(C(F)(F)F)c3)ccc2C)ncn1", "values": [{"measurement": "inhibition", "setting": "[16]", "value": 20.3, "unit": "%"}, {"measurement": "inhibition", "setting": "[17]", "value": 2.6, "unit": "%"}, {"measurement": "inhibition", "setting": "[18]", "value": -6.7, "unit": "%"}, {"measurement": "inhibition", "setting": "[19]", "value": 2, "unit": "%"}, {"measurement": "inhibition", "setting": "[20]", "value": -8.3, "unit": "%"}]}]}
